# Experimental data published in patent US12697330B2, “Therapeutic methods using vadadustat” (Akebia Therapeutics, Inc., priority 2021, dated 2026).
# Key:
# Assay type in all cases: in vivo, human
# [1] = tested on: total iron binding capacity (TIBC); assay: Phase 2a clinical trials in stage 3, 4, or 5 CKD patients: iron-related parameters
# [2] = Phase 1b study: pharmacokinetics of vadadustat and its metabolites in plasma of hemodialysis subjects with anemia associated with CKD
# Procedure: The primary objective of the study was to assess the pharmacokinetics (PK) of vadadustat 600, 750, and 900 mg daily, and IV ESA (darbepoetin alfa or epoetin alfa) in hemodialysis subjects with anemia associated with CKD. Additional objectives included to evaluate the pharmacodynamics (PD) of vadadustat 600, 750, and 900 mg daily, and IV ESA (darbepoetin alfa or epoetin alfa) in hemodialysis subjects with anemia associated with CKD and to assess the safety and tolerability of vadadustat 600, 750, and 900 mg daily and IV ESA (darbepoetin alfa or epoetin alfa) in hemodialysis subjects with anemia associated with CKD.
# Study Design. This was a Phase 1b, randomized, open-label study to evaluate the PK, PD, safety, and tolerability of vadadustat 600, 750, or 900 mg daily, or ESA (darbepoetin alfa or epoetin alfa) in hemodialysis subjects with anemia associated with CKD. The study included a 28-day Screening and Randomization period, a 10-day Treatment Period, and a 30-day Safety Follow up Period after the last dose of study drug (vadadustat or ESA). For subjects randomized to vadadustat, study duration also included an ESA washout period of a minimum of 5 days for epoetin alfa or 9 days for darbepoetin alfa or 9-day ESA Washout period prior to dosing on Day 1.
# A total of 46 subjects were enrolled in the study. Written informed consent were obtained before any screening procedures were performed. Subjects were screened within 28 days prior to randomization. Eligible subjects were randomized in a 2:2:2:1 ratio to 1 of 4 treatment groups (600, 750, or 900 mg vadadustat QD, or ESA. Randomized subjects began their 10-day Treatment Period within 36 days of initiating screening.
# Eligible subjects were randomly assigned in a 2:2:2:1 ratio to 1 of 4 treatment groups: Group 1—vadadustat 600 mg once daily (QD); Group 2—vadadustat 750 mg QD; Group 3—vadadustat 900 QD; and Group 4—IV ESA. Randomization was stratified by the mean weekly ESA dose calculated over a period of 8 weeks prior to the randomization visit. For darbepoetin, the groups were divided into low dose darbepoetin alfa group (<0.5 μg/kg/week) and high dose darbepoetin alfa group (>0.5 to <1.5 μg/kg/week). For epoetin, the groups were divided into low dose epoetin alfa group (≤90 U/kg/week) and high dose epoetin alfa group (>90 to <300 U/kg/week).
# Subjects began dosing on Day 1 and took vadadustat at approximately the same time each day for a total of 10 days. On Day 1 and Day 8, subjects took vadadustat after all predose procedures are completed and within 30 minutes prior to the start of dialysis so that the 1-hour post dose blood sample for PK and PD was collected during dialysis. Vadadustat could be taken with or without food. Subjects were instructed to make every effort to take the drug consistently, either with or without food. Subjects were instructed to swallow the tablets whole with water.
# PK and EPO Sample. For each vadadustat treatment group, blood samples for vadadustat PK (and its metabolites) and EPO were collected at the following time points: Day 1: predose, and at 1, 2, 3, 4, 5, 8, and 11 hours post dose; Day 2: 24 hours (−2 hours) post Day 1 dose; Day 6: blood sample for EPO analysis only was collected predose on Day 6; Day 8: predose, and at 1, 2, 3, 4, 5, 8, 11 hours post dose, Day 10 or EOT: predose. For the ESA treatment group, blood samples for analysis of EPO were collected at the following time points: Day 1: predose, and at 0.25, 1, 2, 3, 4, 5, 8, and 11 hours post dose; Day 2: 24 hours (−2 hours) post Day 1 dose.
# Primary Endpoints. […]
# Hb = assay: Phase 1b study: pharmacodynamics, Hb, reticulocytes, iron indices, hepcidin; conditions: 10-day Treatment period
# Source text: PD Sampling. For all vadadustat and ESA treatment groups, in addition to EPO, blood samples for Hb, reticulocytes and iron indices for PD analyses were collected on Day 1, Day 6 and Day 10. Hepcidin were collected predose on Day 1, Day 6, and Day 10 for PD analysis.
# Secondary Endpoints. For each treatment group, PD parameters included, but were not limited to, as deemed appropriate: hepcidin, erythropoietin (EPO), iron indices (iron, ferritin, total iron-binding capacity [TIBC], TSAT), Hb, and reticulocytes.
# [3] = Phase 1b study: safety and tolerability
# Source text: All subjects were followed for safety for 30 days after the Day 10 visitor 30 days after their last dose of study drug (vadadustat or ESA) if they discontinued study drug treatment early. Subjects returned to the clinic for safety assessments 2-5 days after completing Day 10/EOT and concluded the study with a follow-up telephone call to assess for AEs and concomitant medications 30 days after their last dose of study drug.
# Safety Endpoints. Safety could be evaluated by: adverse events (AE), electrocardiogram (ECG), vital signs measurements, and clinical laboratory values.
# Safety Population was defined as all subjects who received at least one dose of study drug. This population was analyzed based upon the actual treatment received.
# healthy adults = assay: Drug interaction study with co-administration of vadadustat in healthy adults; conditions: with probenecid, an inhibitor of UGT and OAT1/3 transporters
# Source text: Sulfasalazine. Other Breast Cancer Resistance Protein Substrates. and Probenecid. Exposures to sulfasalazine (moderately) and mesalamine (mildly) were increased with co-administration of vadadustat based on a study in healthy adults. In subjects taking vadadustat, sulfasalazine and other clinically relevant substrates of the breast cancer resistance protein (BCRP) transporter (e.g., sulfasalazine, methotrexate, mitoxantrone, imatinib, irinotecan, lapatinib, topotecan, tenofovir, glecaprevir, pibrentasvir, or sofosbuvir), caution should be taken during the study. Probenecid, an inhibitor of UDP-glucuronosyltransferase (UGT) and the organic anion transporter (OAT)1/3 transporters, increased vadadustat area under the curve and is prohibited during the study.
TIBC versus dose [1],transferrin saturation (TSAT) [1],"total iron binding capacity (TIBC) levels ([1]; 6 weeks post administration, compared to placebo treated patients)",vadadustat exposure (AUC0-24 and Cmax) versus dose ([2]; Day 1 and Day 8),"exposure for vadadustat, as measured by AUC0-24, versus dose ([2]; Day 1 dosing, 600 to 750 to 900 mg)","Mean apparent total body clearance (CL/F) values across doses ([2]; Day 8, 600, 750, 900 mg)","Tmax ([2]; human, plasma, oral, 600, 750, and 900 mg groups, Day 1 and Day 8, during the dialysis, read-out: median Tmax of vadadustat) [h]",accumulation versus dose ([2]; most pronounced in the 900 mg vadadustat treatment group),vadadustat area under the curve (healthy adults),Structure (SMILES),serum iron levels with the increase in TIBC [1],mean Hb levels versus dose (Hb),incidence of drug-related Treatment Emergent Adverse Events (TEAEs) ([3]; 3 vadadustat treatment arms),"safety concerns ([3]; 600, 750, 900 mg QD, 10 days)","tolerability ([3]; oral administration, 600, 750, 900 mg QD, 10 days)"
dose-related increase,decrease,increase,–,–,–,–,–,–,"O=C(O)CNC(=O)c1ncc(-c2cccc(Cl)c2)cc1O [Compound 1, {[5-(3-chlorophenyl)-3-hydroxypyridine-2-carbonyl]amino}acetic acid]",not associated with an increase in serum iron levels,–,–,–,–
–,–,–,dose-dependent increase,increased with increasing dose,similar,2 to 3,dose-dependent increase in accumulation,increased,"O=C(O)CNC(=O)c1ncc(-c2cccc(Cl)c2)cc1O [vadadustat, {[5-(3-chlorophenyl)-3-hydroxypyridine-2-carbonyl]amino}acetic acid]",–,not a dose-dependent increase,infrequent and similar across all 3 treatment arms,No major safety concerns were observed,generally well tolerated
